Measurements published in patent publication US6846505B2, “Anti-oxidant” (Danisco A/S, priority 1999, dated 2005).
One block for each molecule: values may come before it.

What was measured:
[1] = β-carotene method: de-coloration of beta-carotene by oxygen and oxidative intermediates of linoleic acid (OD470 nm)
Source text: (§1) The following five methods were used to evaluate compounds in accordance with the present invention. […] Note: both MDA and 4-HNE are the oxidation products of polyunsaturated fatty acids from lipids. • 3. β-carotene method was used to measure the protection of β-carotene oxidation by lipid peroxide in the presence of an added anti-oxidant. • 4. DPPH (1,1-diphenyl-2-picrylhydrazyl) method was used to measure the radical scavenging activity of an anti-oxidant towards the radical DPPH. • 5. polyphenol oxidase (PPO) method was used to measure the inhibition of polyphenol oxidase in vegetables, fruits and mushrooms.
Principle and Goal: Carotenes are one of the pigments which may be used to give a healthy colour to food or drinks. They are therefore used as food colorant. β-Carotene is also the precursor for vitamin A. Carotenoid molecules are highly unsaturated and are prone to oxidative degradation; which is stimulated by light, enzymes, metals, and co-oxidation with lipid hydroperoxides.
In the system used, beta-carotene was exposed to oxygen and the oxidative intermediates of linoleic acid.
The assay was performed according to H. E. Miller (JAOSC (1970) 48: 91). The assay system consisted of beta-carotene, linoleic acid, and Tween 40. In the blank, no anti-oxidant was added, while in the tests, either APP in a concentration of 2.5-25 ppm or sodium ascorbate in a concentration of 100-500 ppm was added. The mixtures were incubated in the dark for the time and temperature indicated (see Table 2.1 and 2.2). The absorbance was then measured at 470 nm. The absorbance provided an indication of beta-carotene content. Lower OD470 nm values indicate more degradation of beta-carotene.

[2] = LPO method: MDA and 4HNE from oxidation of linoleic acid (OD586 nm); conditions: for OD586 nm of the ascorbate test / OD586 nm of the APP test: 24° C. in the dark for 10 days
Source text: as §1
Principle and Goal: A major area for use of antioxidants in food-related products are their ability to prevent the oxidation of polyunsaturated fatty acids in lipids. The oxidation of lipids and fatty acids is a major problem in food.
Assay Conditions: The assay of MDA and 4HNE was performed by the LPO method, using the assay kit from OXIS International, Inc. (Portland, Oreg., USA) and according to their protocol. The assay mixture for the blank contained linoleic acid and Tween 40. For the tests, APP or sodium ascorbate was added. After incubation at 24° C. in the dark for 10 days, the samples were assayed for MDA and 4HNE contents as indicated by their absorbance at 586 nm as given in Table 3. Higher OD586 nm values indicate higher content of MDA and 4HNE, and therefore more degradation of linoleic acid.

apple slices = experiment: Browning of apple slices (Example 1, FIG. 2); conditions: prolonged period, weeks or months, at room temperature
Source text: Compounds of the present invention were investigated as an anti-browning agent in vegetable and fruit products.

[3] = system: mushroom polyphenol oxidase (PPO); experiment: Polyphenol oxidase (PPO) inhibition, tyrosine substrate, absorbance at 475 nm; type: biochemical; conditions: for OD475 nm (browning product formation): 10 ppm APP, 24° C., pH 6.5
Description: Principle and Goal: PPO is one of the enzymes involved in oxidative browning of vegetables and fruits. […] Blank: To 20 μl PPO (20 units, from mushroom. Sigma product. EC 1.14.18.1) was added 0.45 ml water, 0.43 ml phosphate buffer (0.2M Na2HPO4—NaH2PO4, pH6.5), so the final volume was 0.9 ml Control: To 20 μl PPO was added 0.15 ml water, 0.43 ml phosphate buffer (0.2M Na2HPO4—NaH2PO4, pH6.5), then 0.3 ml tyrosine (1 mM, BDH product). Time course progress of the reaction was monitored at room temperature (24° C.) at 475 nm by using a Perkin Elmer UV/VIS Lambda 18 spectrophotometer. Test: To 20 μl PPO was added 0.143 ml water, 7 μl APP (final 10 ppm), 0.430 ml phosphate buffer (0.2M Na2HPO4—NaH2PO4, pH6.5), then 0.3 ml tyrosine (1 mM, BDH product). Time course progress of the reaction was monitored as above. Table 1. Inhibition of 10 ppm APP on polyphenol oxidase (PPO) as indicated by very slow increase at absorbance 475nm compared to control. Higher values at OD475 nm indicate more browning product formation.

[4] = disclosed tests of reference [3]; cited from earlier work

SMILES: O=C1O[C@H]([C@@H](O)CO)C([O-])=C1O.[Na+] [Sodium ascorbate, sodium ascorbate, reference compound]
The OD470 nm of the ascorbate test ([1]; 100 ppm, 37° C. for 161 min in the dark): −0.01
The OD470 nm of the ascorbate test ([1]; 100 ppm, 37° C. for 161 min then 24° C. for 17.5 hours in the dark): −0.006
The OD470 nm of the ascorbate test ([1]; 300 ppm, 37° C. for 161 min in the dark): 0.096
The OD470 nm of the ascorbate test ([1]; 300 ppm, 37° C. for 161 min then 24° C. for 17.5 hours in the dark): 0.102
The OD470 nm of the ascorbate test ([1]; 500 ppm, 37° C. for 161 min in the dark): 0.191
The OD470 nm of the ascorbate test ([1]; 500 ppm, 37° C. for 161 min then 24° C. for 17.5 hours in the dark): 0.200
OD586 nm of the ascorbate test ([2]; 100 ppm): 0.279
OD586 nm of the ascorbate test ([2]; 300 ppm): 0.097
OD586 nm of the ascorbate test ([2]; 500 ppm): 0.032

Inhibition of PPO (in words) [3]: inhibited
SMILES: O=c1cc(CO)occ1O [kojic acid]
Prevention of browning of apple slices (apple slices): completely prevent browning

Inhibition of PPO (in words) [3]: efficient inhibitor
OD475 nm (browning product formation) ([3]; reaction time 0 min): 0
OD475 nm (browning product formation) ([3]; reaction time 1 min): 0
OD475 nm (browning product formation) ([3]; reaction time 3 min): 0
OD475 nm (browning product formation) ([3]; reaction time 5 min): 0
OD475 nm (browning product formation) ([3]; reaction time 7 min): 0.0005
OD475 nm (browning product formation) ([3]; reaction time 9 min): 0.0017
OD475 nm (browning product formation) ([3]; reaction time 11 min): 0.0033
OD475 nm (browning product formation) ([3]; reaction time 13 min): 0.0056
OD475 nm (browning product formation) ([3]; reaction time 15 min): 0.0082
OD475 nm (browning product formation) ([3]; reaction time 17 min): 0.0122
OD475 nm (browning product formation) ([3]; reaction time 19 min): 0.0178
OD475 nm (browning product formation) ([3]; reaction time 20 min): 0.0209
SMILES: O=C1C(O)=COC(CO)C1O [APP, 1,5-Anhydro-D-glycero-hex-1-en-3-ulose]
Effect on oxidative de-coloration of beta-carotene (in words) [1]: delayed the oxidative de-coloration of beta-carotene
The OD470 nm of the APP test ([1]; 2.5 ppm, 37° C. for 161 min in the dark, lower OD = more degradation): 0.264
The OD470 nm of the APP tests ([1]; 2.5 ppm, 37° C. for 161 min then 24° C. for 17.5 hours in the dark): 0.173
The OD470 nm of the APP test ([1]; 6.2 ppm, 37° C. for 161 min in the dark): 0.314
The OD470 nm of the APP tests ([1]; 6.2 ppm, 37° C. for 161 min then 24° C. for 17.5 hours in the dark): 0.270
The OD470 nm of the APP test ([1]; 12.5 ppm, 37° C. for 161 min in the dark): 0.322
The OD470 nm of the APP tests ([1]; 12.5 ppm, 37° C. for 161 min then 24° C. for 17.5 hours in the dark): 0.274
The OD470 nm of the APP test ([1]; 25 ppm, 37° C. for 161 min in the dark): 0.326
The OD470 nm of the APP tests ([1]; 25 ppm, 37° C. for 161 min then 24° C. for 17.5 hours in the dark): 0.263
Effectiveness relative to ascorbic acid in preventing the de-coloration of β-carotene ([1]; FIG. 4): around 100 times
Effect on oxidation of linoleic acid (in words) [2]: able to delay the oxidation of linoleic acid
OD586 nm of the APP test ([2]; 2.5 ppm, higher OD = more MDA and 4HNE): 0.358
Efficiency in delaying the oxidative degradation of linoleic acid compared with ascorbic acid ([2]; 6.2 ppm APP, FIG. 5): almost as efficient as 300 ppm ascorbic acid
OD586 nm of the APP test ([2]; 6.2 ppm): 0.100
OD586 nm of the APP test ([2]; 12.5 ppm): 0.084
Function as an antibiotic [4]: did not function satisfactorily as an antibiotic

SMILES: O=C1O[C@H]([C@@H](O)CO)C(O)=C1O [ascorbic acid, reference compound]
Prevention of browning of apple slices (apple slices): unable to do so
